Here are results for twelve molecules from patent US20110184027A1, “TISSUE SELECTIVE STEAROYL-COA DESATURASE 1 INHIBITORS AND CELL BASED SCREENING ASSAY FOR THEIR IDENTIFICATION” (GLENMARK PHARMACEUTICALS S.A., priority 2008, published 2011).

In assay [1] the target is T1, SCD-1 (Homo sapiens, UniProt O00767).
T1 sequence (O00767 1-359): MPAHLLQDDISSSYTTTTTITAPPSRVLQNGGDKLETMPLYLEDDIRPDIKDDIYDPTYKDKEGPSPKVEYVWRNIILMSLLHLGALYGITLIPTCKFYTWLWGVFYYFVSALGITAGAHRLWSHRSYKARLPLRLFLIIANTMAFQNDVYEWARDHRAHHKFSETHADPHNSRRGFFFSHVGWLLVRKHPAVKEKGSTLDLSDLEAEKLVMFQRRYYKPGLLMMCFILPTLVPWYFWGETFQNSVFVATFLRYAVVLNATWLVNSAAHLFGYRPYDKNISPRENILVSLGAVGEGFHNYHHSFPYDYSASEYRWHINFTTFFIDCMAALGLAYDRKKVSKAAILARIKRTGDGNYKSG
In words: Whole cell based SCD-1 assay in human liver cell line HepG2 (tritiated stearoyl CoA, labelled water release). Also on record: includes cells which express the SCD-1 gene product endogenously; endogenous in cells; host or cells: A431 (ATCC CRL 1555), not induced. To be noted: EC35. On the procedure: (§1) An assay was developed using whole cells to screen for agents that modulate SCD-1 activity. Three cell lines namely human liver cell line (hepatocellular carcinoma HepG2 ATCC HB 8065), human skin cell line (epidermal carcinoma A431 ATCC CRL 1555) and human corneal epithelial progenitor (HCEP) cells (CELLNTEC advanced cell systems) were used. HepG2 cells were seeded in a 24 well plate in complete MEM medium (Hyclone). A431 cells were seeded in a 12 well plate in complete DMEM medium (Sigma). HCEP cells were seeded in a 96 well plate in defined corneal epithelial medium CnT 20 (CELLNTEC advanced cell systems). HepG2 cells were induced with LXR agonist T0901317 (Cayman chemicals) in medium containing high glucose and fatty acid free BSA for 3 days with media change every day (Wang et al, (2004) Journal of Lipid Research, 45, 972-980). A431 cells were not induced. (3). The cells were preincubated in plain medium with the known SCD-1 modulators namely CLA (conjugated linoleic acid) (Sigma) and TSA (9 thiastearic acid) (Cayman chemicals) for 15-30 minutes at 37 deg C. and further challenged with 0.25 to 7.5 μCi tritiated Stearoyl CoA (American Radiolabelled chemicals). The cells were incubated for last 6 hours in 5% CO2 incubator at 37 deg C. or in specific embodiments for 4 hours to 30 hours. At the end of the incubation, the incubation medium was collected into tubes. Dowex AG 1-X8 resin (Biorad laboratories) pre-equilibrated with distilled ethanol:water was added to the tubes to separate the unconsumed substrate from the labelled water. The tubes were then vortexed for 5 minutes and centrifuged at 14000 rpm for 20 minutes at room temperature. The supernatant from the tubes was mixed with the scintillation fluid and radioactivity counted in the Packard topcount scintillation counter (Perkin Elmer). Counts obtained were normalised per million cells. Inhibition of enzyme activity was calculated as the percent of maximum reaction control that contained no test compound.
(§2) The whole cell based assay was adapted to screen for agents that differentially modulate SCD-1 activity present in different tissues. Three cell lines namely human liver cell line (hepatocellular carcinoma HepG2), human skin cell line (epidermal carcinoma A431) and human corneal epithelial progenitor (HCEP) cells were used. HepG2 cells were seeded in a 24 well plate in complete MEM medium. A431 cells were seeded in a 12 well plate in complete DMEM medium. HCEP cells were seeded in a 96 well plate in defined corneal epithelial medium CnT 20. HepG2 cells were induced with LXR agonist T0901317 in medium containing 4.5 gm/litre glucose and 0.1% fatty acid free BSA for 3 days with media change every day (Wang et al, (2004) Journal of Lipid Research, 45, 972-980). A431 cells and HCEP cells were not induced. (3). The cells were preincubated in plain medium 0.1 nM to 10 μM concentrations potential SCD-1 modulator compounds for 15-30 minutes at 37 deg C. and further challenged with 0.25 to 7.5 μCi tritiated Stearoyl CoA. The cells were incubated for last 6 hours in 5% CO2 incubator at 37 deg C. or in specific embodiments for 4 hours to 30 hours. At the end of the incubation, the incubation medium was collected into tubes. Dowex AG 1-X8 resin pre-equilibrated with distilled ethanol:water was added to the tubes to separate the unconsumed substrate from the labelled water. The tubes were then vortexed for 5 minutes and centrifuged at 14000 rpm for 20 minutes at room temperature. The supernatant from the tubes was mixed with the scintillation fluid and radioactivity counted in the Packard topcount scintillation counter. Counts obtained were normalised per million cells. Inhibition of enzyme activity was calculated as the percent of maximum reaction control that contained no test compound. For active compounds, EC35 was calculated from dose response curve by non linear regression analysis using GraphPadPRISM software. The ratio of EC35 for skin cells to EC35 for liver cells was calculated. […]

Assay [2] concerns the target T1, SCD-1. In words: Whole cell based SCD-1 assay in human skin cell line A431 (tritiated stearoyl CoA, labelled water release). Also on record: includes cells which express the SCD-1 gene product endogenously; endogenous in cells; host or cells: A431 (ATCC CRL 1555), not induced. As to conditions: for IC35: EC35; for Fold Skin:liver: ratio of EC35 skin cells (A431) to EC35 liver cells (HepG2). How it is done: as §1, §2

In assay [3] the target is T1, SCD-1. In words: Whole cell based SCD-1 assay in human liver cell line HepG2 (tritiated stearoyl CoA, labelled water release). Also on record: includes cells which express the SCD-1 gene product endogenously; endogenous in cells; host or cells: A431 (ATCC CRL 1555), not induced. To be noted: for Fold Liver:skin: ratio of EC35 liver cells (HepG2) to EC35 skin cells (A431).

The target of assay [4] is T1, SCD-1. Briefly: Whole cell based SCD-1 assay in human corneal epithelial progenitor (HCEP) cells. On the set-up: includes cells which express the SCD-1 gene product endogenously; endogenous in cells. As to conditions: for IC35: HCEP human corneal epithelial cells, EC35, read-out: hCornea EC35; for Fold Liver:Cornea: ratio of EC35 liver cells (HepG2) to EC35 corneal cells (HCEP). How it is done:
as §1
The whole cell based assay was adapted to screen for agents that differentially modulate SCD-1 activity present in different tissues. Three cell lines namely human liver cell line (hepatocellular carcinoma HepG2), human skin cell line (epidermal carcinoma A431) and human corneal epithelial progenitor (HCEP) cells were used. HepG2 cells were seeded in a 24 well plate in complete MEM medium. A431 cells were seeded in a 12 well plate in complete DMEM medium. HCEP cells were seeded in a 96 well plate in defined corneal epithelial medium CnT 20. HepG2 cells were induced with LXR agonist T0901317 in medium containing 4.5 gm/litre glucose and 0.1% fatty acid free BSA for 3 days with media change every day (Wang et al, (2004) Journal of Lipid Research, 45, 972-980). A431 cells and HCEP cells were not induced. (3). […] The cells were incubated for last 6 hours in 5% CO2 incubator at 37 deg C. or in specific embodiments for 4 hours to 30 hours. At the end of the incubation, the incubation medium was collected into tubes. […] The supernatant from the tubes was mixed with the scintillation fluid and radioactivity counted in the Packard topcount scintillation counter. […] Inhibition of enzyme activity was calculated as the percent of maximum reaction control that contained no test compound. For active compounds, EC35 was calculated from dose response curve by non linear regression analysis using GraphPadPRISM software. The ratio of EC35 for skin cells to EC35 for liver cells was calculated.

Assay [5] concerns the target T1, SCD-1. In words: Whole cell based SCD-1 assay in human skin cell line A431 (tritiated stearoyl CoA, labelled water release). Also on record: includes cells which express the SCD-1 gene product endogenously; endogenous in cells; host or cells: A431 (ATCC CRL 1555), not induced.
Where [6] appears, read: HepG2 human liver cells, read-out: hLiver EC35.
[7] abbreviates: A-431, A431 human skin cells, read-out: hSkin EC35.
[8] abbreviates: HepG2 liver cells, LXR agonist induced, read-out: Inhibition of SCD-1 activity in whole cell based assay (EC35), HepG2.

As to `Cc1nc(C#Cc2ccc(O)cc2)sc1C(=O)NCc1ccc(Cl)cc1` [compound 3], the IC35 is 698 nM in assay [1] (setting [6]) and above 10000 nM in assay [2] (setting [7]). The “Fold Skin:liver” value in assay [2] is listed as above 15.
Consider `Cc1nc(-c2ccc(-c3ccc(O)cc3)nc2)sc1C(=O)NCCc1ccccc1` [compound 2], for which the IC35 came out at 438 nM in assay [1] (setting [6]) and 168 nM in assay [2] (setting [7]). Besides, in assay [3], the “Fold Liver:skin” value is reported as 2.60.
As for `Cc1nc(C#Cc2ccc(O)cc2)sc1C(=O)NCCc1ccccc1` [compound 2], the IC35 in assay [1] (setting [6]) was 490 nM; in assay [2] (setting [7]), 982 nM. Moreover, the “Fold Skin:liver” value in assay [2] is given as 2.00.
On to `Cc1nc(-c2ccc(-c3ccc(O)cc3)nc2)sc1C(=O)NCCCc1ccccc1` [compound 1], for which the IC35 turned out to be 266 nM in assay [1] (setting [6]) and 180 nM in assay [2] (setting [7]). In addition, the “Fold Liver:skin” value in assay [3] was determined as 1.47.
For the molecule `Cc1nc(-n2cnn(Cc3cccc(F)c3F)c2=O)sc1C(=O)NCc1ccccc1` [compound 3], the figures for the IC35 in assay [1] (setting [6]) and in assay [2] (setting [7]) were 29.4 nM and 33.8 nM, respectively. In addition, the “Fold Skin:liver” value in assay [2] came to 1.15.
On the same counts, the results for `Cc1nc(C#Cc2ccc(O)cc2)sc1C(=O)NCc1cccnc1` [compound 1] are 2300 nM, 2140 nM and 0.93.
`Cc1nc(C#Cc2ccc(O)cc2)sc1C(=O)NCCc1ccc(F)cc1` [compound 2]: in assay [4], the IC35 stood at 53.2 nM and the “Fold Liver:Cornea” value is reported as 9.02. Moreover, in assay [1] (setting [6]), the IC35 came out at 480 nM.
Consider `Cc1nc(C#Cc2cccc(O)c2)sc1C(=O)NCc1ccccc1` [compound 1], for which the IC35 stood at 3440 nM in assay [1] (setting [6]) and 6900 nM in assay [2] (setting [7]). In addition, in assay [2], the “Fold Skin:liver” value came to 2.00.
In the case of `Cc1nc(C#Cc2ccc(O)cc2)sc1C(=O)NCc1ccccc1` [compound 1], the figures for the IC35 in assay [4] and in assay [1] (setting [6]) were 218 nM and 363 nM, respectively. The “Fold Liver:Cornea” value in assay [4] stood at 1.66.
On to `Cc1nc(-n2cnn(Cc3ccc(F)cc3)c2=O)sc1C(=O)NCc1ccccc1` [compound 2], for which the IC35 in assay [1] (setting [6]) worked out at 39.5 nM; in assay [2] (setting [7]), 37.8 nM. Besides, the “Fold Skin:liver” value in assay [2] is given as 0.95.
`CCCCCCCCCSCCCCCCCC(=O)O` [TSA, 9 thiastearic acid, reference compound]: the IC35 was around 100000 nM in assay [1] (setting [8]) and around 100000 nM in assay [2] (A-431, A431 skin cells, not induced, read-out: Inhibition of SCD-1 activity in whole cell based assay (EC35), A431). For the same molecule, the inhibition at 100 µM in assay [3] (HepG2, HepG2 liver cells, at 100 μM, read-out: Percentage inhibition of SCD-1, HepG2) came out at 58%; in assay [5] (A-431, A431 skin cells, at 100 μM, read-out: Percentage inhibition of SCD-1, A431), 52%.
Regarding “conjugated linoleic acid [CLA, reference compound]”, the “Percentage inhibition of SCD-1, HCEP” value in assay [4] (HCEP corneal cells, at 300 μM) is given as around 80% at 300 μM. Moreover, the IC35 in assay [1] (setting [8]) was found to be 22660 nM; in assay [2] (A431 skin cells, not induced, read-out: Inhibition of SCD-1 activity in whole cell based assay (EC35), A431), 16350 nM. Further, the “Percentage inhibition of SCD-1, HepG2” value in assay [3] (HepG2 cells, at 300 μM) is “(~80.01% at 300 μM)”. Also, the “Percentage inhibition of SCD-1, A431” value in assay [5] (A431 cells, at 300 μM) is “(~91% at 300 μM)”.

In general, inhibition refers to the drop in the measured response relative to a control, in per cent.
